Experimental data from patent US7033829B2, “Method to inhibit cell growth using oligonucleotides” (Trustees of Boston University, priority 2000, dated 2006).
Oligonucleotides are written 5' to 3', each unit as a sugar letter and its base; * is a phosphorothioate linkage, no mark a phosphodiester; rarer units and linkages stand in square brackets, end groups in braces. Plain capitals give the bases only. d = 2'-deoxy (DNA); {P} = phosphate

Test system: Cloudman S91 mouse melanoma cells
Experiment: Melanin content of Cloudman S91 melanoma cells
Type: cell-based
Conditions: for pigment content increase, of control levels: 100 μM, three experiments; for pigment content increase, of control levels / melanin content, of control cells / increase in melanin / reduction of melanogenic activity by removal of the 5′ phosphate: 5 days; for melanin content, of control cells: FIG. 12; for increase in melanin: FIG. 15; for reduction of melanogenic activity by removal of the 5′ phosphate: FIG. 16; for melanin content relative to control diluent-treated cells: 10 μM, five days, FIG. 17; for melanogenesis: 100 μM dinucleotides or 40 μM 11mers, 6 days
Protocol: The induction of melanogenesis in Cloudman S91 mouse melanoma cells by a five-nucleotide oligomer CATAC (SEQ ID NO: 6) and a nine-nucleotide oligomer, GAGTATGAG (SEQ ID NO: 1) was examined. Duplicates of Cloudman S91 murine melanoma cells were incubated with either 100 μM oligo or an equal volume of diluent (H2O) for 5 days. The cells were then collected, counted, and an equal number of cells were pelleted for melanin analysis. […] Variations of this oligonucleotide were evaluated: a scrambled 9-mer (TAGGAGGAT; SEQ ID NO: 2) and two truncated versions, a 7-mer (AGTATGA; SEQ ID NO: 3) and second 5-mer (GTATG; SEQ ID NO: 4). […] The truncated versions (SEQ ID NOs: 3 and 4) were also active, inducing 640% and 670% increases, respectively.
Cultures of Cloudman S91 murine melanoma cells were treated for 5 days with SEQ ID NO: 1, SEQ ID NO: 6, pTpT as a positive control, or an equal volume of diluent as a negative control. […] SEQ ID NO: 6 produced a slight increase in melanin, to 165+/−77% of control levels. SEQ ID NO: 1 stimulated melanin content to an average of 600+/−260% of control levels.
pTpT, shown previously to stimulate pigmentation in these cells, was used as a reference treatment, and diluent alone was used as a negative control. After five days of treatment with the oligonucleotides, the cells were collected, counted, and an equal number of cells were pelleted for melanin analysis. […] SEQ ID NO: 5, representing the telomere over-hang sequence, also at 10 μM, increased the melanin level to 10 times that of control cells.
S91 cells were cultured in the presence of diluent alone, pTpT p9mer (SEQ ID NO: 1), p7mer (AGTATGA; SEQ ID NO: 7) or p5mer #2 (SEQ ID NO: 4). […] Both SEQ ID NOS: 4 and 7 stimulated a 7–8 fold increase in melanin.
S91 cells were cultured for 5 days in the presence of the thymidine dinucleotides or SEQ ID NO: 1 with or without a 5′ phosphate or diluent alone as a negative control.
Cultures of S91 mouse melanoma cells (100,000 cells/38 cm^2) were treated with 100 μM pTpT or phosphorothioate pTpT (pTspT) (FIG. 22) or 40 μM 11mer-1 or the phosphorothioate 11mer-1 (11mer-1-S) (FIG. 23) for 6 days and were then collected, counted and assayed for melanin content.
Duplicate cultures of S91 cells (100,000 cells/39 cm^2) were either sham-irradiated or irradiated with 5 mJ/cm^2 solar-simulated light from a 1 kW xenon arc solar-simulator (XMN 1000-21, Optical Radiation, Azuza, Calif.) metered at […] using a research radiometer (model IL1700A, International Light, Newburyport, Mass.). Two sham-irradiated plates were then supplemented with 100 μM pTspT and two irradiated cultures were similarly treated with pTspT. After one week, cells were collected, counted and analyzed for melanin content by dissolving the cell pellets in 1 N NaOH and measuring the optical density at […]. […] However, this response was blocked by the addition of pTspT (FIG. 24). In addition, the constitutive pigmentation of these cells was reduced by the pTspT in the sham-irradiated cultures, similar to the data presented in FIGS. 22 and 23.

Substance	pigment content increase, of control levels	melanin content, of control cells	increase in melanin	reduction of melanogenic activity by removal of the 5′ phosphate [%]	increase in melanin content (variations of the 9-mer, cells not given) [%]	melanin content relative to control diluent-treated cells	melanogenesis	constitutive pigmentation (100 μM pTspT or 40 μM 11mer-1-S, 6 days or one week)
pGAGTATGAG (DNA, 5' {P}, backbone not given here) [SEQ ID NO: 1]	418%±267%	600+/−260%	a larger increase	60	800			
pGTTAGGGTTAG (DNA {P}-dGdTdTdAdGdGdGdTdTdAdG) [SEQ ID NO: 5]						10 times that of control	stimulated melanogenesis	
thymidine dinucleotide [pTpT]	155%±60%	255+/−60%	moderate increase in melanin content	80		3 times that of control	stimulated melanogenesis	
pCTAACCCTAAC (DNA, 5' {P}, backbone not given here) [SEQ ID NO: 9, reference compound]						did not produce significant change in pigment content		
11mer-1-S: phosphorothioate 11mer-1 (dG*dT*dT*dA*dG*dG*dG*dT*dT*dA*dG; further chemistry not fully specified)							did not	reduced the constitutive pigmentation
pGATCGATCGAT (DNA {P}-dGdAdTdCdGdAdTdCdGdAdT) [SEQ ID NO: 10, reference compound]						did not produce significant change in pigment content		
